Laboratory results taken from patent publication US20240238242A1, “EGCG buccal tablet and use thereof” (priority 2023, published 2024).
“And” between values parts separate entries of the source, which are not always exact repeats. Identical values can stand only once.

Test system: Coronavirus (hCoV-229E)
Experiment: Inactivation efficiency against coronavirus hCoV-229E strain (residual TCID50 on Huh-7 cells)
Format: cell-based
Conditions: for CPE test (virus replication in cell wells): wells 1-10; for average inactivation efficiency against virus / inactivation efficiency against the virus: hCoV-229E virus; for average inactivation efficiency against virus: three experiments; for inactivation efficiency against the virus: single experiment

O=C(O[C@@H]1Cc2c(O)cc(O)cc2O[C@@H]1c1cc(O)c(O)c(O)c1)c1cc(O)c(O)c(O)c1 [EGCG, Epigallocatechin gallate]
CPE test (virus replication in the cell wells) (1 mM EGCG + virus, co-incubated 5 minute, second experiment, dilution factor 10^8, wells 1-10): −
CPE test (virus replication in the cell wells) (1 mM EGCG + virus, co-incubated 5 minutes, dilution factor 10^1, wells 1-10, third experiment): +
CPE test (virus replication in the cell wells) (1 mM EGCG + virus, co-incubated 5 minutes, dilution factor 10^2, wells 1-10, third experiment): +
CPE test (virus replication in the cell wells) (1 mM EGCG + virus, co-incubated 5 minutes, dilution factor 10^3, wells 1-10, third experiment): +
CPE test (virus replication in the cell wells) (1 mM EGCG + virus, co-incubated 5 minutes, dilution factor 10^4, wells 1-10, third experiment): +
CPE test (virus replication in the cell wells) (1 mM EGCG + virus, co-incubated 5 minutes, dilution factor 10^5, wells 1-10, third experiment): + and −
CPE test (virus replication in the cell wells) (1 mM EGCG + virus, co-incubated 5 minutes, dilution factor 10^6, wells 1-10, third experiment): − and +
CPE test (virus replication in the cell wells) (1 mM EGCG + virus, co-incubated 5 minutes, dilution factor 10^7, wells 1-10, third experiment): −
CPE test (virus replication in the cell wells) (1 mM EGCG + virus, co-incubated 5 minutes, dilution factor 10^8, wells 1-10, third experiment): −
CPE test (virus replication in cell wells) (1 mM EGCG + virus, hCoV-229E co-incubated 1 minute, second experiment, dilution factor 10^1): +
CPE test (virus replication in cell wells) (1 mM EGCG + virus, hCoV-229E co-incubated 1 minute, second experiment, dilution factor 10^2): +
CPE test (virus replication in cell wells) (1 mM EGCG + virus, hCoV-229E co-incubated 1 minute, second experiment, dilution factor 10^3): +
CPE test (virus replication in cell wells) (1 mM EGCG + virus, hCoV-229E co-incubated 1 minute, second experiment, dilution factor 10^4): + and −
CPE test (virus replication in cell wells) (1 mM EGCG + virus, hCoV-229E co-incubated 1 minute, second experiment, dilution factor 10^5): − and +
CPE test (virus replication in cell wells) (1 mM EGCG + virus, hCoV-229E co-incubated 1 minute, second experiment, dilution factor 10^6): −
CPE test (virus replication in cell wells) (1 mM EGCG + virus, hCoV-229E co-incubated 1 minute, second experiment, dilution factor 10^7): −
CPE test (virus replication in cell wells) (1 mM EGCG + virus, hCoV-229E co-incubated 1 minute, second experiment, dilution factor 10^8): −
CPE test (virus replication in cell wells) (1 mM EGCG + virus, hCoV-229E co-incubated 1 minute, third experiment, dilution factor 10^1): +
CPE test (virus replication in cell wells) (1 mM EGCG + virus, hCoV-229E co-incubated 1 minute, third experiment, dilution factor 10^2): +
CPE test (virus replication in cell wells) (1 mM EGCG + virus, hCoV-229E co-incubated 1 minute, third experiment, dilution factor 10^3): +
CPE test (virus replication in cell wells) (1 mM EGCG + virus, hCoV-229E co-incubated 1 minute, third experiment, dilution factor 10^4): +
CPE test (virus replication in cell wells) (1 mM EGCG + virus, hCoV-229E co-incubated 1 minute, third experiment, dilution factor 10^5): + and −
CPE test (virus replication in cell wells) (1 mM EGCG + virus, hCoV-229E co-incubated 1 minute, third experiment, dilution factor 10^6): − and +
CPE test (virus replication in cell wells) (1 mM EGCG + virus, hCoV-229E co-incubated 1 minute, third experiment, dilution factor 10^7): −
CPE test (virus replication in cell wells) (1 mM EGCG + virus, hCoV-229E co-incubated 1 minute, third experiment, dilution factor 10^8): −
average inactivation efficiency against virus (1 mM EGCG, 1 minute): 49.71%
inactivation efficiency against the virus (1 mM EGCG, 5 minutes): 49.88% and 36.90%
average inactivation efficiency against virus (1 mM EGCG, 5 minutes): 45.55%
CPE test (virus replication in cell wells) (5 mM EGCG + hCoV-229E virus, co-incubated 1 minute, first experiment, dilution factor 10^2): +
CPE test (virus replication in cell wells) (5 mM EGCG + hCoV-229E virus, co-incubated 1 minute, first experiment, dilution factor 10^3): +
CPE test (virus replication in cell wells) (5 mM EGCG + hCoV-229E virus, co-incubated 1 minute, first experiment, dilution factor 10^4): +
CPE test (virus replication in cell wells) (5 mM EGCG + hCoV-229E virus, co-incubated 1 minute, first experiment, dilution factor 10^5): + and −
CPE test (virus replication in cell wells) (5 mM EGCG + hCoV-229E virus, co-incubated 1 minute, first experiment, dilution factor 10^6): −
CPE test (virus replication in cell wells) (5 mM EGCG + hCoV-229E virus, co-incubated 1 minute, first experiment, dilution factor 10^7): −
CPE test (virus replication in cell wells) (5 mM EGCG + hCoV-229E virus, co-incubated 1 minute, first experiment, dilution factor 10^8): −
CPE test (virus replication in the cell wells) (5 mM EGCG + virus, co-incubated 5 minute, first experiment, dilution factor 10^2, wells 1-10): +
CPE test (virus replication in the cell wells) (5 mM EGCG + virus, co-incubated 5 minute, first experiment, dilution factor 10^3, wells 1-10): +
CPE test (virus replication in the cell wells) (5 mM EGCG + virus, co-incubated 5 minute, first experiment, dilution factor 10^4, wells 1-10): +
CPE test (virus replication in the cell wells) (5 mM EGCG + virus, co-incubated 5 minute, first experiment, dilution factor 10^5, wells 1-10): − and +
CPE test (virus replication in the cell wells) (5 mM EGCG + virus, co-incubated 5 minute, first experiment, dilution factor 10^6, wells 1-10): −
CPE test (virus replication in the cell wells) (5 mM EGCG + virus, co-incubated 5 minute, first experiment, dilution factor 10^7, wells 1-10): −
CPE test (virus replication in the cell wells) (5 mM EGCG + virus, co-incubated 5 minute, first experiment, dilution factor 10^8, wells 1-10): −
CPE test (virus replication in the cell wells) (5 mM EGCG + virus, co-incubated 5 minute, second experiment, dilution factor 10^2, wells 1-10): +
CPE test (virus replication in the cell wells) (5 mM EGCG + virus, co-incubated 5 minute, second experiment, dilution factor 10^3, wells 1-10): +
CPE test (virus replication in the cell wells) (5 mM EGCG + virus, co-incubated 5 minute, second experiment, dilution factor 10^4, wells 1-10): +
CPE test (virus replication in the cell wells) (5 mM EGCG + virus, co-incubated 5 minute, second experiment, dilution factor 10^5, wells 1-10): − and +
CPE test (virus replication in the cell wells) (5 mM EGCG + virus, co-incubated 5 minute, second experiment, dilution factor 10^6, wells 1-10): − and +
CPE test (virus replication in the cell wells) (5 mM EGCG + virus, co-incubated 5 minute, second experiment, dilution factor 10^7, wells 1-10): −
CPE test (virus replication in the cell wells) (5 mM EGCG + virus, co-incubated 5 minute, second experiment, dilution factor 10^8, wells 1-10): −
CPE test (virus replication in the cell wells) (5 mM EGCG + virus, co-incubated 5 minutes, dilution factor 10^1, wells 1-10, third experiment): +
CPE test (virus replication in the cell wells) (5 mM EGCG + virus, co-incubated 5 minutes, dilution factor 10^2, wells 1-10, third experiment): +
CPE test (virus replication in the cell wells) (5 mM EGCG + virus, co-incubated 5 minutes, dilution factor 10^3, wells 1-10, third experiment): +
CPE test (virus replication in the cell wells) (5 mM EGCG + virus, co-incubated 5 minutes, dilution factor 10^4, wells 1-10, third experiment): +
CPE test (virus replication in the cell wells) (5 mM EGCG + virus, co-incubated 5 minutes, dilution factor 10^5, wells 1-10, third experiment): + and −
CPE test (virus replication in the cell wells) (5 mM EGCG + virus, co-incubated 5 minutes, dilution factor 10^6, wells 1-10, third experiment): − and +
CPE test (virus replication in the cell wells) (5 mM EGCG + virus, co-incubated 5 minutes, dilution factor 10^7, wells 1-10, third experiment): −
CPE test (virus replication in the cell wells) (5 mM EGCG + virus, co-incubated 5 minutes, dilution factor 10^8, wells 1-10, third experiment): −
CPE test (virus replication in cell wells) (5 mM EGCG + virus, hCoV-229E co-incubated 1 minute, second experiment, dilution factor 10^2): +
CPE test (virus replication in cell wells) (5 mM EGCG + virus, hCoV-229E co-incubated 1 minute, second experiment, dilution factor 10^3): + and −
CPE test (virus replication in cell wells) (5 mM EGCG + virus, hCoV-229E co-incubated 1 minute, second experiment, dilution factor 10^4): +
CPE test (virus replication in cell wells) (5 mM EGCG + virus, hCoV-229E co-incubated 1 minute, second experiment, dilution factor 10^5): − and +
CPE test (virus replication in cell wells) (5 mM EGCG + virus, hCoV-229E co-incubated 1 minute, second experiment, dilution factor 10^6): −
CPE test (virus replication in cell wells) (5 mM EGCG + virus, hCoV-229E co-incubated 1 minute, second experiment, dilution factor 10^7): −
CPE test (virus replication in cell wells) (5 mM EGCG + virus, hCoV-229E co-incubated 1 minute, second experiment, dilution factor 10^8): −
CPE test (virus replication in cell wells) (5 mM EGCG + virus, hCoV-229E co-incubated 1 minute, third experiment, dilution factor 10^2): +
CPE test (virus replication in cell wells) (5 mM EGCG + virus, hCoV-229E co-incubated 1 minute, third experiment, dilution factor 10^3): +
CPE test (virus replication in cell wells) (5 mM EGCG + virus, hCoV-229E co-incubated 1 minute, third experiment, dilution factor 10^4): +
CPE test (virus replication in cell wells) (5 mM EGCG + virus, hCoV-229E co-incubated 1 minute, third experiment, dilution factor 10^5): + and −
CPE test (virus replication in cell wells) (5 mM EGCG + virus, hCoV-229E co-incubated 1 minute, third experiment, dilution factor 10^6): − and +
CPE test (virus replication in cell wells) (5 mM EGCG + virus, hCoV-229E co-incubated 1 minute, third experiment, dilution factor 10^7): −
CPE test (virus replication in cell wells) (5 mM EGCG + virus, hCoV-229E co-incubated 1 minute, third experiment, dilution factor 10^8): −
inactivation efficiency against the virus (5 mM EGCG, 1 minute): 68.38% and 49.88%
average inactivation efficiency against virus (5 mM EGCG, 1 minute): 62.21%
inactivation efficiency against the virus (5 mM EGCG, 5 minutes): 60.19% and 36.90% and 49.88%
average inactivation efficiency against virus (5 mM EGCG, 5 minutes): 48.99%
